# According to PMC10184313, “Inhibition of Thiamine Diphosphate-Dependent Enzymes by Triazole-Based Thiamine Analogues” (ACS Medicinal Chemistry Letters, 2023):
# How the values were obtained:
# [1] = target: T1, E. coli OGDHc E1 (Escherichia coli, UniProt P0AFG3); experiment: E. coli OGDHc E1 inhibitory activity assay (DCPIP reduction); format: biochemical; conditions: for IC50: [ThDP] 30 μM; for Ki: determined according to the KM for ThDP
# T1 sequence (P0AFG3 1-933): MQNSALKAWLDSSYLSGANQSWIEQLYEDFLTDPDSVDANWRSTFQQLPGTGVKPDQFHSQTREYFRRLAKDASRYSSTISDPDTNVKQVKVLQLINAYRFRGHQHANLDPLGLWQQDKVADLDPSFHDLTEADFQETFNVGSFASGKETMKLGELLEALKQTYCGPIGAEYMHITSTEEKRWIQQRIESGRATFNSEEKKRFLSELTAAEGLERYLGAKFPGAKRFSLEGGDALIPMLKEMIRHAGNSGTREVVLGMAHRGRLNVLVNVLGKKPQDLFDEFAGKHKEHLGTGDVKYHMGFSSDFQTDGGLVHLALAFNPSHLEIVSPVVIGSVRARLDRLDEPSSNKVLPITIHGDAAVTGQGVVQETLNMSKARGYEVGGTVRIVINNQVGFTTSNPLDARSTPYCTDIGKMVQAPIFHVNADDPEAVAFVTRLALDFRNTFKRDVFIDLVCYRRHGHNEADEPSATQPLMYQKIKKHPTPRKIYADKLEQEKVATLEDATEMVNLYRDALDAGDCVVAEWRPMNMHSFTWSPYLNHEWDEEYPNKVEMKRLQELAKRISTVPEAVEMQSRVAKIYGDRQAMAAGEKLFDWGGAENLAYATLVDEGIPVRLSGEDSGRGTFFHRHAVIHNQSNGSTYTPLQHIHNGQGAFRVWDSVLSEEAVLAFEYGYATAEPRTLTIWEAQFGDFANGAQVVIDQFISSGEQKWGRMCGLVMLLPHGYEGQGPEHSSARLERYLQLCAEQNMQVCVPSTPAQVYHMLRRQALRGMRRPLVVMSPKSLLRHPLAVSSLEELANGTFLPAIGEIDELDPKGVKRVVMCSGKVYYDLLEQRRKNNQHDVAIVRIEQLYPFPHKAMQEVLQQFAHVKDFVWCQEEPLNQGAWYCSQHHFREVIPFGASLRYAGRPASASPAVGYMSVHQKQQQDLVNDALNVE
# Procedure: E. coli OGDHc E1 inhibitory activity assay. E. coli OGDHc E1 was from our previous work 5 and had been donated by R. Frank. Its activity was determined by monitoring DCPIP reduction at 600 nm using a microplate reader (CLARIOstar) and conducted as described 1,2 with some modifications. The percentage inhibition of compounds against E. coli OGDHc E1 was assayed at a final concentration of 250 µM. The reaction buffer (50 mM KH 2PO4 and 2 mM MgCl 2, pH 7) contained 50 µM ThDP (or 125 µM in the competition assay), 0.5 mM DCPIP, and 6.7 mg/ml E. coli OGDHc E1. The reaction mixture was preincubated at 37 °C for 60 min, then reaction was initiated by adding α-ketoglutarate to a final concentration of 10 mM. To determine the IC 50, ThDP concentration was lowered to 30 µM, and inhibitor concentration was varied (2-1000 µM). Specific activity was calculated using the molar […]
# for the PDHc E1 assay. […] 5 […]
# [2] = target: T2, A. viridans PO (Aerococcus viridans, UniProt A9X9K8); experiment: A. viridans PO inhibitory activity assay (quinoneimine dye); format: biochemical; conditions: for IC50: [ThDP] 50 μM; for Ki: determined according to the KM for ThDP
# T2 sequence (A9X9K8 1-592): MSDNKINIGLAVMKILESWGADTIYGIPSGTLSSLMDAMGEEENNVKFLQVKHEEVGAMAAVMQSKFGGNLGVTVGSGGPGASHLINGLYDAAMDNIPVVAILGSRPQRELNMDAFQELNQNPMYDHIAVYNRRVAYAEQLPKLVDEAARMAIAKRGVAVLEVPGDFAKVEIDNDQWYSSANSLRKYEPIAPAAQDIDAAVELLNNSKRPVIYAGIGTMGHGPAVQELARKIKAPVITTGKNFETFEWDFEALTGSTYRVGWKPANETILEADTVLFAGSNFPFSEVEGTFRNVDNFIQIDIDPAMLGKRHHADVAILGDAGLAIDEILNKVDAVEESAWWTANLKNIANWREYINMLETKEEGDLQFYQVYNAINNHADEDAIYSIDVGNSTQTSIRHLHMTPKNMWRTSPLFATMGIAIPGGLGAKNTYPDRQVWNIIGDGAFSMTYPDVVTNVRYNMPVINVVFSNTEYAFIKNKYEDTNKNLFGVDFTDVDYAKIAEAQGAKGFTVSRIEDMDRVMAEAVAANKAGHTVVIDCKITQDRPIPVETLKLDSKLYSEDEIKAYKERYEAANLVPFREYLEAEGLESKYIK
# Procedure: A. viridans PO inhibitory activity assay. A. viridans PO and horseradish peroxidase were purchased from Sigma. A. viridans PO activity was determined by monitoring appearance of quinoneimine dye at 550 nm using a microplate reader (CLARIOstar) and conducted as described 1 with some modifications.
# The percentage inhibition of compounds against A. viridans PO was assayed at a final concentration of 250 µM. The reaction buffer (50 mM KH 2PO4 and 10 mM MgCl 2, pH 5.9) contained 50 µM ThDP (or 125 µM in the competition assay), 10 µM flavin adenine dinucleotide (FAD), 0.15% 4-Aminoantipyrine, 0.3% N-Ethyl-N-(2-hydroxy-3-sulfopropyl)-m-toluidine (EHSPT), 50 µg/mL horseradish peroxidase and 0.35 U/mL A. viridans PO. The reaction mixture was preincubated at 37 °C for 30 min, then reaction was initiated by adding pyruvate to a final concentration of 50 mM. To determine the IC 50, inhibitor concentration was varied (2-1000 µM) with ThDP concentration at 50 µM. 1 unit of PO activity is defined as 1 μmol of hydrogen peroxide produced per minute. The enzyme IC 50 values were calculated as described for the PDHc E1 assay. […]
# [3] = [Compound] = 250 μM, [ThDP] = 50 μM
# [4] = increased ThDP: [Compound] = 250 μM, [ThDP] = 125 μM
structure (smiles),measurement,setting,value
Cc1ncc(Cn2cc(CCO)nn2)c(N)n1 [Compound 9a],inhibition at 250 µM,[1]; [3],57 ± 4%
same,Inhibition (%) PO,[2]; [3],< 20%
Cc1ncc(Cn2cc(CCCO)nn2)c(N)n1 [Compound 9b],inhibition at 250 µM,[1]; [3],50 ± 3%
same,Inhibition (%) PO,[2]; [3],< 20%
Cc1ncc(Cn2cc(CCCCO)nn2)c(N)n1 [Compound 9c],inhibition at 250 µM,[1]; [3],51 ± 2%
same,Inhibition (%) PO,[2]; [3],< 20%
Cc1ncc(Cn2cc(CCOC(=O)c3cccc(-c4noc(C(F)(F)F)n4)c3)nn2)c(N)n1 [Compound 13a],inhibition at 250 µM,[1]; [3],< 20%
same,Inhibition (%) PO,[2]; [3],< 20%
Cc1ncc(Cn2cc(CCOC(=O)c3cccc(C#N)c3)nn2)c(N)n1 [Compound 14a],inhibition at 250 µM,[1]; [3],< 20%
same,Inhibition (%) PO,[2]; [3],< 20%
Cc1ncc(Cn2cc(CCn3cc(-c4ccccc4)nn3)nn2)c(N)n1 [Compound 15a],inhibition at 250 µM,[1]; [3],23 ± 3%
same,inhibition at 250 µM,[1]; [4],< 20%
same,Inhibition (%) PO,[2]; [3],22 ± 2%
same,Inhibition (%) PO,[2]; [4],<20%
Cc1ncc(Cn2cc(CCCn3cc(-c4ccccc4)nn3)nn2)c(N)n1 [Compound 15b],inhibition at 250 µM,[1]; [3],< 20%
same,inhibition at 250 µM,[1]; [4],< 20%
same,Inhibition (%) PO,[2]; [3],< 20%
same,Inhibition (%) PO,[2]; [4],<20%
Cc1ncc(Cn2cc(CCCCn3cc(-c4ccccc4)nn3)nn2)c(N)n1 [Compound 15c],inhibition at 250 µM,[1]; [3],< 20%
same,inhibition at 250 µM,[1]; [4],< 20%
same,Inhibition (%) PO,[2]; [3],< 20%
same,Inhibition (%) PO,[2]; [4],<20%
Cc1ncc(Cn2cc(CCn3cc(-c4ccc(F)cc4)nn3)nn2)c(N)n1 [Compound 16a],inhibition at 250 µM,[1]; [3],25 ± 4%
same,inhibition at 250 µM,[1]; [4],< 20%
same,Inhibition (%) PO,[2]; [3],< 20%
same,Inhibition (%) PO,[2]; [4],<20%
Cc1ncc(Cn2cc(CCCn3cc(-c4ccc(F)cc4)nn3)nn2)c(N)n1 [Compound 16b],inhibition at 250 µM,[1]; [3],< 20%
same,inhibition at 250 µM,[1]; [4],< 20%
same,Inhibition (%) PO,[2]; [3],< 20%
same,Inhibition (%) PO,[2]; [4],<20%
Cc1ncc(Cn2cc(CCCCn3cc(-c4ccc(F)cc4)nn3)nn2)c(N)n1 [Compound 16c],inhibition at 250 µM,[1]; [3],< 20%
same,inhibition at 250 µM,[1]; [4],< 20%
same,Inhibition (%) PO,[2]; [3],< 20%
same,Inhibition (%) PO,[2]; [4],<20%
COc1ccc(-c2cn(CCc3cn(Cc4cnc(C)nc4N)nn3)nn2)cc1 [Compound 17a],inhibition at 250 µM,[1]; [3],21 ± 3%
same,inhibition at 250 µM,[1]; [4],< 20%
same,Inhibition (%) PO,[2]; [3],< 20%
same,Inhibition (%) PO,[2]; [4],<20%
COc1ccc(-c2cn(CCCc3cn(Cc4cnc(C)nc4N)nn3)nn2)cc1 [Compound 17b],inhibition at 250 µM,[1]; [3],< 20%
same,inhibition at 250 µM,[1]; [4],< 20%
same,Inhibition (%) PO,[2]; [3],< 20%
same,Inhibition (%) PO,[2]; [4],<20%
COc1ccc(-c2cn(CCCCc3cn(Cc4cnc(C)nc4N)nn3)nn2)cc1 [Compound 17c],inhibition at 250 µM,[1]; [3],< 20%
same,inhibition at 250 µM,[1]; [4],< 20%
same,Inhibition (%) PO,[2]; [3],< 20%
same,Inhibition (%) PO,[2]; [4],<20%
Cc1ncc(Cn2cc(CCNS(=O)(=O)C(F)(F)F)nn2)c(N)n1 [Compound 18a],inhibition at 250 µM,[1]; [3],48 ± 2%
same,Inhibition (%) PO,[2]; [3],< 20%
Cc1ncc(Cn2cc(CCCNS(=O)(=O)C(F)(F)F)nn2)c(N)n1 [Compound 18b],inhibition at 250 µM,[1]; [3],42 ± 3%
same,Inhibition (%) PO,[2]; [3],< 20%
Cc1ncc(Cn2cc(CCCCNS(=O)(=O)C(F)(F)F)nn2)c(N)n1 [Compound 18c],inhibition at 250 µM,[1]; [3],58 ± 4%
same,Inhibition (%) PO,[2]; [3],22 ± 4%
Cc1ncc(Cn2cc(CCNC(=O)c3cccc(-c4noc(C(F)(F)F)n4)c3)nn2)c(N)n1 [Compound 19a],inhibition at 250 µM,[1]; [3],< 20%
same,Inhibition (%) PO,[2]; [3],< 20%
Cc1ncc(Cn2cc(CCNC(=O)c3cccc(C#N)c3)nn2)c(N)n1 [Compound 20a],inhibition at 250 µM,[1]; [3],< 20%
same,Inhibition (%) PO,[2]; [3],< 20%
COc1cccc(C(=O)NCCc2cn(Cc3cnc(C)nc3N)nn2)c1 [Compound 21a],inhibition at 250 µM,[1]; [3],63 ± 3%
same,Inhibition (%) PO,[2]; [3],< 20%
COc1cccc(C(=O)NCCCc2cn(Cc3cnc(C)nc3N)nn2)c1 [Compound 21b],inhibition at 250 µM,[1]; [3],58 ± 5%
same,Inhibition (%) PO,[2]; [3],< 20%
COc1cccc(C(=O)NCCCCc2cn(Cc3cnc(C)nc3N)nn2)c1 [Compound 21c],inhibition at 250 µM,[1]; [3],25 ± 3%
same,Inhibition (%) PO,[2]; [3],< 20%
COc1ccccc1C(=O)NCCc1cn(Cc2cnc(C)nc2N)nn1 [Compound 22a],inhibition at 250 µM,[1]; [3],80 ± 4%
same,Inhibition (%) PO,[2]; [3],< 20%
COc1ccccc1C(=O)NCCCc1cn(Cc2cnc(C)nc2N)nn1 [Compound 22b],inhibition at 250 µM,[1]; [3],56 ± 3%
same,Inhibition (%) PO,[2]; [3],< 20%
COc1ccccc1C(=O)NCCCCc1cn(Cc2cnc(C)nc2N)nn1 [Compound 22c],inhibition at 250 µM,[1]; [3],35 ± 3%
same,Inhibition (%) PO,[2]; [3],< 20%
Cc1ncc(Cn2cc(CCC(=O)NO)nn2)c(N)n1 [Compound 24a],inhibition at 250 µM,[1]; [3],73 ± 2%
same,Inhibition (%) PO,[2]; [3],< 20%
Cc1ncc(Cn2cc(CCCC(=O)NO)nn2)c(N)n1 [Compound 24b],inhibition at 250 µM,[1]; [3],> 90%
same,IC50,[1],20 ± 2 µM
same,Ki,[1],2.02 µM
same,inhibition at 250 µM,[1]; [4],78 ± 3%
same,Inhibition (%) PO,[2]; [3],35 ± 5%
same,IC50,[2],202 ± 19 µM
same,Ki,[2],20.2 µM
same,Inhibition (%) PO,[2]; [4],27 ± 4%
Cc1ncc(Cn2cc(CCCCC(=O)NO)nn2)c(N)n1 [Compound 24c],inhibition at 250 µM,[1]; [3],> 90%
same,IC50,[1],15 ± 3 µM
same,Ki,[1],1.46 µM
same,inhibition at 250 µM,[1]; [4],82 ± 2%
same,Inhibition (%) PO,[2]; [3],42 ± 5%
same,IC50,[2],232 ± 23 µM
same,Ki,[2],23.2 µM
same,Inhibition (%) PO,[2]; [4],24 ± 4%
Cc1ncc(Cn2cc(CCC(=O)Nc3ccccc3N)nn2)c(N)n1 [Compound 26a],inhibition at 250 µM,[1]; [3],63 ± 2%
same,Inhibition (%) PO,[2]; [3],< 20%
Cc1ncc(Cn2cc(CCCC(=O)Nc3ccccc3N)nn2)c(N)n1 [Compound 26b],inhibition at 250 µM,[1]; [3],52 ± 2%
same,Inhibition (%) PO,[2]; [3],< 20%
Cc1ncc(Cn2cc(CCCCC(=O)Nc3ccccc3N)nn2)c(N)n1 [Compound 26c],inhibition at 250 µM,[1]; [3],30 ± 2%
same,Inhibition (%) PO,[2]; [3],< 20%
"Cc1ncc(C[n+]2csc(CCO[P@@](=O)(O)OP(=O)(O)O)c2C)c(O)n1 [OxThDP 7b, oxythiamine diphosphate, reference compound]",inhibition at 250 µM,[1]; [3],62 ± 4%
same,inhibition at 250 µM,[1]; [4],41 ± 4%
same,Inhibition (%) PO,[2]; [3],48 ± 4%
same,Inhibition (%) PO,[2]; [4],32 ± 5%
